Read-outs that look alike come from different tables or passages of the source.
Assays:
human topoisomerase I = biological target: T1, human topoisomerase I (Homo sapiens, UniProt P11387); details: relative topoisomerase I inhibition levels, previously determined, six levels (0 - 5, +++++ = 5); cited from earlier work
T1 sequence (P11387 1-765): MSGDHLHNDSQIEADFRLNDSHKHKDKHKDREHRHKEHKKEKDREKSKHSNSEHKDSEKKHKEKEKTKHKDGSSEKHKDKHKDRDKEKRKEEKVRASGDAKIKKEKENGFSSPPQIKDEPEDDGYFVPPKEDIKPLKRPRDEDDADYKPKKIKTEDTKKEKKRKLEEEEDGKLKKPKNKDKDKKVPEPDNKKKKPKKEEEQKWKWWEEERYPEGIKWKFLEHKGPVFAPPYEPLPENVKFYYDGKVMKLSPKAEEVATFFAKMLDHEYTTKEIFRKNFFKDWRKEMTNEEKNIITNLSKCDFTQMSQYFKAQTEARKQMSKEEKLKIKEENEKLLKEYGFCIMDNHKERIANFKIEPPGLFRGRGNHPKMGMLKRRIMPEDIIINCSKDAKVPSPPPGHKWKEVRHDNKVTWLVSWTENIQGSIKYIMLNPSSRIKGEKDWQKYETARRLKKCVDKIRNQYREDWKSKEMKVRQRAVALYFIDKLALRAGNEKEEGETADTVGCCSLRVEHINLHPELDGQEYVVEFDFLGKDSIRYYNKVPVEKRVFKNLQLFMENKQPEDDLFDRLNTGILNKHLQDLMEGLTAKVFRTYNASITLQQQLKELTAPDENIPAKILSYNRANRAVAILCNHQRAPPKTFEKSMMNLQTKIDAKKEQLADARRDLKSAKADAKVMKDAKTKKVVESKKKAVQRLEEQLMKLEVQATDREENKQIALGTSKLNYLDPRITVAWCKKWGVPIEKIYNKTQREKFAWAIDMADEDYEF

NCI-60 cancer cell lines = test: NCI-60 cancer cell line drug screen (GI50, MGM); assay type: cell-based, human; details: Homo sapiens; for GI50: read-out: Antiproliferative Activities [GI50 (μM)]
Experimental: Cancer cells were incubated with the test compounds at five concentrations ranging from 100 μM to 10 nM for 48 h. […] The approximate average of GI50 values across the entire panel of NCI-60 cancer cell lines for each compound was recorded as the MGM value.

CNCCCn1c2c(c3ccc([N+](=O)[O-])cc3c1=O)C(=O)c1cc(OC)cnc1-2 [Compound 10]
Top1 Inhibiton (human topoisomerase I): +++ (strong inhibition, +++, MYC expression inhibited at 0.5 to 1.0 μM)
GI50 (NCI-60 cancer cell lines; 786-0, Renal Cancer, 786-0): 0.04 µM
GI50 (NCI-60 cancer cell lines; A498, Renal Cancer, A498): 0.03 µM
GI50 (NCI-60 cancer cell lines; A549, Non-Small Cell Lung Cancer, A549/ATCC): 0.07 µM
GI50 (NCI-60 cancer cell lines; ACHN, Renal Cancer, ACHN): 0.04 µM
GI50 (NCI-60 cancer cell lines; BT-549, Breast Cancer, BT-549): 0.37 µM
GI50 (NCI-60 cancer cell lines; CAKI-1, Renal Cancer, CAKI-1): 0.03 µM
GI50 (NCI-60 cancer cell lines; CCRF-CEM, Leukemia, CCRF-CEM): 0.04 µM
GI50 (NCI-60 cancer cell lines; COLO 205, Colon Cancer, COLO 205): 0.06 µM
GI50 (NCI-60 cancer cell lines; DU-145, Prostate Cancer, DU-145): 0.05 µM
GI50 (NCI-60 cancer cell lines; EKVX, Non-Small Cell Lung Cancer, EKVX): 0.27 µM
GI50 (NCI-60 cancer cell lines; HCC 2998, Colon Cancer, HCC-2998): 0.2 µM
GI50 (NCI-60 cancer cell lines; HCT-15, Colon Cancer, HCT-15): 0.12 µM
GI50 (NCI-60 cancer cell lines; HCT-116, Colon Cancer, HCT-116): 0.03 µM
GI50 (NCI-60 cancer cell lines; HL-60, Leukemia, HL-60(TB)): 0.04 µM
GI50 (NCI-60 cancer cell lines; HOP-92, Non-Small Cell Lung Cancer, HOP-92): 0.24 µM
GI50 (NCI-60 cancer cell lines; HT-29, Colon Cancer, HT29): 0.06 µM
GI50 (NCI-60 cancer cell lines; Hs-578T, Breast Cancer, HS 578T): 1.17 µM
GI50 (NCI-60 cancer cell lines; IGROV-1, Ovarian Cancer, IGROV1): 0.21 µM
GI50 (NCI-60 cancer cell lines; K562, Leukemia, K-562): 0.04 µM
GI50 (NCI-60 cancer cell lines; KM12, Colon Cancer, KM12): 0.16 µM
GI50 (NCI-60 cancer cell lines; LOX IMVI, Melanoma, LOX IMVI): 0.03 µM
GI50 (NCI-60 cancer cell lines; Leukemia, SR): 0.01 µM
GI50 (NCI-60 cancer cell lines; MCF7, Breast Cancer, MCF7): 0.01 µM
GI50 (NCI-60 cancer cell lines; MDA-MB-231, Breast Cancer, MDA-MB-231/ATCC): 0.27 µM
GI50 (NCI-60 cancer cell lines; MDA-MB-435, Melanoma, MDA-MB-435): 0.15 µM
GI50 (NCI-60 cancer cell lines; MDA-MB-468, Breast Cancer, MDA-MB-468): 0.03 µM
GI50 (NCI-60 cancer cell lines; MOLT-4, Leukemia, MOLT-4): 0.03 µM
GI50 (NCI-60 cancer cell lines; Malme-3M, Melanoma, MALME-3M): 0.18 µM
GI50 (NCI-60 cancer cell lines; Melanoma, M14): 0.04 µM
GI50 (NCI-60 cancer cell lines; NCI-H23, Non-Small Cell Lung Cancer, NCI-H23): 0.04 µM
GI50 (NCI-60 cancer cell lines; NCI-H226, Non-Small Cell Lung Cancer, NCI-H226): 0.09 µM
GI50 (NCI-60 cancer cell lines; NCI-H322M, Non-Small Cell Lung Cancer, NCI-H322M): 0.16 µM
GI50 (NCI-60 cancer cell lines; NCI-H460, Non-Small Cell Lung Cancer, NCI-H460): 0.02 µM
GI50 (NCI-60 cancer cell lines; NCI-H522, Non-Small Cell Lung Cancer, NCI-H522): 0.08 µM
GI50 (NCI-60 cancer cell lines; OVCAR-3, Ovarian Cancer, OVCAR-3): 0.17 µM
GI50 (NCI-60 cancer cell lines; OVCAR-4, Ovarian Cancer, OVCAR-4): 0.17 µM
GI50 (NCI-60 cancer cell lines; OVCAR-5, Ovarian Cancer, OVCAR-5): 0.14 µM
GI50 (NCI-60 cancer cell lines; OVCAR-8, Ovarian Cancer, OVCAR-8): 0.09 µM
GI50 (NCI-60 cancer cell lines; Ovarian Cancer, NCl/ADR-RES): 0.06 µM
GI50 (NCI-60 cancer cell lines; Prostate Cancer, PC-3): 0.13 µM
GI50 (NCI-60 cancer cell lines; RPMI-8226, Leukemia, RPMI-8226): 0.08 µM
GI50 (NCI-60 cancer cell lines; RXF 393, Renal Cancer, RXF 393): 0.07 µM
GI50 (NCI-60 cancer cell lines; Renal Cancer, U0-31): 0.03 µM
GI50 (NCI-60 cancer cell lines; SF-268, CNS Cancer, SF-268): 0.07 µM
GI50 (NCI-60 cancer cell lines; SF-295, CNS Cancer, SF-295): 0.03 µM
GI50 (NCI-60 cancer cell lines; SF-539, CNS Cancer, SF-539): 0.05 µM
GI50 (NCI-60 cancer cell lines; SK-MEL-2, Melanoma, SK-MEL-2): 0.35 µM
GI50 (NCI-60 cancer cell lines; SK-MEL-5, Melanoma, SK-MEL-5): 0.11 µM
GI50 (NCI-60 cancer cell lines; SK-MEL-28, Melanoma, SK-MEL-28): 0.39 µM
GI50 (NCI-60 cancer cell lines; SK-OV-3, Ovarian Cancer, SK-OV-3): 0.06 µM
GI50 (NCI-60 cancer cell lines; SN12C, Renal Cancer, SN12C): 0.05 µM
GI50 (NCI-60 cancer cell lines; SNB-19, CNS Cancer, SNB-19): 0.04 µM
GI50 (NCI-60 cancer cell lines; SNB-75, CNS Cancer, SNB-75): 0.13 µM
GI50 (NCI-60 cancer cell lines; SW-620, Colon Cancer, SW-620): 0.03 µM
GI50 (NCI-60 cancer cell lines; T47D, Breast Cancer, T-47D): 0.03 µM
GI50 (NCI-60 cancer cell lines; TK-10, Renal Cancer, TK-10): 0.32 µM
GI50 (NCI-60 cancer cell lines; U-251, CNS Cancer, U251): 0.04 µM
GI50 (NCI-60 cancer cell lines; UACC-257, Melanoma, UACC-257): 0.18 µM
mean GI50 across NCI-60 panel (MGM) (NCI-60 cancer cell lines; average of GI50 values across the entire panel of NCI-60 cancer cell lines): 0.074 µM
